Source: patent US11419814B2, “Transdermal compositions of ibuprofen and methods of use thereof” (Aponia Laboratories, Inc., priority 2011, dated 2022)
Where “and” joins values, the source holds several entries; their conditions need not be identical. Identical values can stand only once.

System: EpiSkin (reconstructed human epidermis)
Assay: In vitro dermal irritation EpiSkin test (MTT viability)
Protocol: The SkinEthic EpiSkin® test system has been validated by OECD test method (439) as an in vitro model to assess skin irritation potential. The test uses human keratinocytes derived from healthy donors, grown in vitro to reconstruct a functional model of the human epidermis.
EpiSkin® units were shipped on transport agar in sterile plates of 12 individual units. Upon delivery, the condition of the EpiSkin® was assessed by checking the pH and temperature indicators. EpiSkin® units were transferred to 12 well plates containing EpiSkin® maintenance medium (2 mL). […] The negative control was Dulbecco's phosphate buffered saline (PBS) and the positive control was an aqueous solution of sodium dodecyl sulphate (SDS, 5%, w/v).
The formulations were applied to the skin “without dilution”. An aliquot (10 μL) of the undiluted formulations and control substances were applied to three replicate EpiSkin® tissues using a positive displacement pipette. The formulations and controls were gently spread over the entire surface of the exposed skin using the applicator tip.
The EpiSkin® was exposed to the formulations and control substances for 15 min±30 s. The EpiSkin® surface was then rinsed with PBS (ca 25 mL) and returned to a well containing fresh Maintenance Medium (2 mL). […]
After the recovery period, EpiSkin® units were tapped dry and transferred to wells containing a solution of MTT in EpiSkin Assay Medium (2 mL, 0.3 mg/mL). […] The cell viability of each tissue was calculated from optical density absorption readings with reference to the negative controls, which were assigned the nominal value of 100% viability.
Standard statistical techniques were used to calculate ODblank mean: the average OD of the blank (acidified isopropanol containing) wells. The corrected OD for each sample or control was calculated by subtracting the value of ODblank mean from each reading: ODcorrected=ODraw−ODblank mean
The % Viability for each sample and positive control was calculated as follows: % Viability=(ODcorrected/mean ODnegative controls)×100 […]

CCCCCCCCCCCCOS(=O)(=O)[O-].[Na+] [Aqueous SDS Solution (5%, w/v), sodium dodecyl sulphate]
Mean Relative Viability per Treatment (%) (mean of three tissues, irritant (GHS category 2) if viability is 50% or less): 23.36% | Mean Relative Viability per Tissue (%) (per replicate tissue (Rep 1-3), 15 min exposure, 42 h recovery, sulphate): 19.00% and 36.63% and 14.46% | Relative Viability (%) (single readings, two per replicate tissue (Rep 1-3), 10 μL undiluted, 15 min exposure, 42 h recovery, negative control = 100%, sulphate): 19.05% and 18.95% and 36.18% and 37.08% and 13.81% and 15.12%
